Results on 3 compounds are retold here after patent US20080120731A1, “Transgenic Animal Models for Neurodevelopmental Disorders” (priority 2004, published 2008).

SMILES strings stand for the structures. Read-outs that look alike come from different tables or passages of the source.

For experiment [1], the system named is APH1BC ^−/− mice. Briefly: Locomotor activity (infrared beam breaks in activity monitor) after amphetamine. The note with it: 3 μg/kg intraparietally.
Experiment [2] concerns APH1BC ^−/− mice. Briefly: Open field locomotor activity (total distance traveled) after apomorphine. The note with it: 2 μg/kg subcutaneously; for activity at 0.002 mg/kg: Mus musculus, sc, 10 min.
A further experiment has as its system APH1BC^−/− mice. Briefly: Prepulse inhibition (PPI) of acoustic startle after antipsychotic injection. It is filed as in vivo. From the text: Schizophrenia is a complex disease characterized by delusions and hallucinations (so-called positive symptoms), affective and social disturbances (negative symptoms), but also by cognitive deficits. Disturbed information processing, and more specifically an impairment in the filtering of irrelevant stimuli, is thought to contribute to the disease phenotype by causing “sensory flooding”, which may lead to cognitive fragmentation. A psychophysical measure of (pre-attentive) information filtering is “prepulse inhibition” (PPI). […] The strength of this reflex response is read out by recording the amplitude of the eye-blink response that is part of the startling reaction. This way, the amplitude of the eye-blink response is a measure of the efficiency of the coupling of the sensory stimulus to the motor reflex programme. If the startle stimulus is preceded by a weak, non-startling “prepulse stimulus”, e.g. a tone just above background noise levels, the amplitude of the eye-blink response to the startle stimulus is strongly diminished in normal individuals. […] The “% prepulse inhibition (PPI)” is quantified as: 100−((A2/A1)*100), with A1 being the amplitude of the response to the startle stimulus and A2 the amplitude of the response to the same startle stimulus preceded by the prepulse stimulus. […] In rodents the motor reaction to a startle stimulus is quantified by placing mice into a restraining tube in a sound-proof cabin mounted onto a pressure sensitive platform. Upon presentation of the startling sound, the mouse flinches and the pressure it exerts via its limbs is recorded quantitatively as a ballistogram that can be analysed using appropriate software. This way, the effect of a preceding prepulse on the flinching reaction to a startle stimulus can be calculated.
For all trials, background noise was 70 db, the prepulse preceded the startle stimulus by 100 ms, the prepulse stimuli lasted 20 ms and the startle stimuli lasted 60 ms. […] For each of the four different combinations of prepulse and startle stimulus, the % PPI was calculated using the formula described above. […]

`CC(N)Cc1ccccc1` (stereo not shown) [amphetamine, Amphetamine]: in the experiment on APH1BC ^−/− mice [1] (p=0,06 for genotype effect), the “reaction of APH1BC ^−/− mice versus wild-type littermates (rise in activity, maximal activity, total activity over two hours)” value was “reacted more strongly”. Also, the “time of peak locomotor activity after injection” value in the experiment on APH1BC ^−/− mice [1] ([…]) lay in the range of 35 to 40 min. Also, the “locomotor activity after drug administration” value in the experiment with APH1BC ^−/− mice [1] ([…], monitored 2 h after injection) is “rose strongly and continuously”.
Regarding `CN1CCc2cccc3c2[C@H]1Cc1ccc(O)c(O)c1-3` [apomorphine], the “reaction of APH1BC ^−/− mice versus wild-type littermates” value in the experiment with APH1BC ^−/− mice [2] (p=0,045 two-tailed student's t test) is listed as “reacted more strongly”. In addition, the activity at 0.002 mg/kg amounted to 27% in the experiment on APH1BC ^−/− mice [2] (read-out: residual activity (distance APO/distance placebo)*100%, APH1BC −/− mice, 10 min open field) and 50% with APH1BC ^−/− mice [2] (read-out: residual activity (distance APO/distance placebo)*100%, wild type mice, 10 min open field). Besides, the “effect on locomotion (total distance traveled in open field)” value in the experiment on APH1BC ^−/− mice [2] ([…], 10 min open field, p<0,001 for treatment effect) was “strong inhibition of locomotion”.
For `O=C(CCCN1CCC(O)(c2ccc(Cl)cc2)CC1)c1ccc(F)cc1` [haloperidol, Haloperidol], the “PPI in APH1BC^−/− mice relative to wild type levels” value with APH1BC^−/− mice (APH1BC^−/− mice, pp 74/p110 and pp 78/p110 trials, 1 μg/kg injected intra-parietally, PPI measured 45 min after injection) is “essentially normalized”. The “effects on (improvements of) PPI in the p100 trials” value in the experiment on APH1BC^−/− mice (p100 trials, 1 μg/kg intra-parietally, 45 min after injection) is on record as “small but insignificant effects”. The “wild type PPI levels compared to placebo-injected animals” value with APH1BC^−/− mice (wild type littermates, pp74/p110 and pp 78/p110 trials, 1 μg/kg intra-parietally, 45 min after injection) is given as “significantly elevated”.
